US5856341A, “Benzo [B] indeno [2,1-D] thiophene compounds, intermediates, processes, compositions and methods” (Eli Lilly and Company, priority 1997, dated 1999)

Tests used:
serum cholesterol = assay: Serum cholesterol in ovariectomized rats (Cholesterol Analysis); format: in vivo, Sprague Dawley rats; details: for Serum Cholest. % Decrease verses ovariectomized controls: daily for 4 days, OVX rats
Procedure: (§1) In the examples illustrating the methods, a postmenopausal model was used in which effects of different treatments upon circulating lipids were determined.
(§2) Seventy-five day old female Sprague Dawley rats (weight range of 200 to 225 g) were obtained from Charles River Laboratories (Portage, Mich.). The animals were either bilaterally ovariectomized (OVX) or exposed to a Sham surgical procedure at Charles River Laboratories, and then shipped after one week. Upon arrival, they were housed in metal hanging cages in groups of 3 or 4 per cage and had ad libitum access to food (calcium content approximately 0.5%) and water for one week. Room temperature was maintained at 22.2°±1.7° C. with a minimum relative humidity of 40%. The photoperiod in the room was 12 hours light and 12 hours dark.
(§3) Dosing Regimen Tissue Collection. After a one week acclimation period (therefore, two weeks post-OVX) daily dosing with test compound was initiated. 17α-ethynyl estradiol or the test compound were given orally, unless otherwise stated, as a suspension in 1% carboxymethylcellulose or dissolved in 20% cyclodextrin. Animals were dosed daily for 4 days. Following the dosing regimen, animals were weighed and anesthetized with a ketamine: xylazine (2:1, V:V) mixture and a blood sample was collected by cardiac puncture. The animals were then sacrificed by asphyxiation with CO2, the uterus was removed through a midline incision, and a wet uterine weight was determined.
Cholesterol Analysis. Blood samples were allowed to clot at room temperature for 2 hours, and serum was obtained following centrifugation for 10 minutes at 3000 rpm. Serum cholesterol was determined using a Boehringer Mannheim Diagnostics high performance cholesterol assay. Briefly the cholesterol was oxidized to cholest-4-en-3-one and hydrogen peroxide. The hydrogen peroxide was then reacted with phenol and 4-aminophenazone in the presence of peroxidase to produce a p-quinone imine dye, which was read spectrophotemetrically at 500 nm. Cholesterol concentration was then calculated against a standard curve.
(§4) Source of Compound: 17α-ethynyl estradiol was obtained from Sigma Chemical Co., St. Louis, Mo.
(§5) Data presented in Table 1 below show comparative results among ovariectomized rats, rats treated with 17α-ethynyl estradiol (EE2; an orally available form of estrogen), and rats treated with certain compounds of the instant invention. […] This uterine response to estrogen is well recognized in the art.
(§6) The data presented in Table 1 below reflects the response of 5 to 6 rats per treatment.

uterus = assay: Uterine weight in ovariectomized rats, 4 days daily oral dosing (postmenopausal model); format: in vivo, Sprague Dawley rats; details: for Uterine Weight % Increase verses ovariectomized controls: daily for 4 days, OVX rats
Procedure: as §1, §2, §3, §4, §5, §6

Eosinophil peroxidase = assay: Uterine Eosinophil Peroxidase (EPO) Assay in ovariectomized rats; format: in vivo, Sprague Dawley rats; details: for Uterine Eosinophil peroxidase, Vmax: daily for 4 days, OVX rats
Procedure: as §1, §2, §3
Uterine Eosinophil Peroxidase (EPO) Assay. Uteri were kept at 4° C. until time of enzymatic analysis. The uteri were then homogenized in 50 volumes of 50 mM Tris buffer (pH-8.0) containing 0.005% Triton X-100. Upon addition of 0.01% hydrogen peroxide and 10 mM O-phenylenediamine (final concentrations) in Tris buffer, increase in absorbance was monitored for one minute at 450 nm. The presence of eosonophils in the uterus is an indication of estrogenic activity of a compound. The maximal velocity of a 15 second interval was determined over the initial, linear portion of the reaction curve.
as §4
As is expressed in the data below, estrogenicity also was assessed by evaluating the adverse response of eosinophil infiltration into the uterus.
as §6

femur = assay: Osteoporosis Test Procedure: bone protection in ovariectomized rats, 35 days oral; format: in vivo; details: for Femur BMD % protection / Femur. % Protection (x-ray image): 35 days, relative to ovariectomy
Procedure: Following the General Preparation Procedure, infra, the rats are treated daily for 35 days (6 rats per treatment group) and sacrificed by carbon dioxide asphyxiation on the 36th day. The 35 day time period is sufficient to allow maximal reduction in bone density, measured as described herein. At the time of sacrifice, the uteri are removed, dissected free of extraneous tissue, and the fluid contents are expelled before determination of wet weight in order to confirm estrogen deficiency associated with complete ovariectomy. […] The uteri are then placed in 10% neutral buffered formalin to allow for subsequent histological analysis. The right femurs are excised and digitilized x-rays generated and analyzed by an image analysis program (NIH image) at the distal metaphysis. The proximal aspect of the tibiae from these animals are also scanned by quantitative computed tomography. In accordance with the above procedures, compounds of the instant invention and ethynyl estradiol (EE2) in 20% hydroxypropyl β-cyclodextrin are orally administered to test animals. Distal femur metaphysis and proximal tibiae data are the results of formula I compound treatments compared to intact and ovariectomized test animals. Results are reported as percent protection relative to ovariectomy in Table 2 below.

[1] = test system: MCF-7 breast adenocarcinoma cells; assay: MCF-7 Proliferation Assay (tritiated thymidine incorporation); format: cell-based; details: Homo sapiens, MCF7; 48 hours with drug, then tritiated thymidine 4 hours; read-out: ED50 (MCF-7 proliferation)
Procedure: MCF-7 breast adenocarcinoma cells (ATCC HTB 22) were maintained in MEM (minimal essential medium, phenol red-free, Sigma, St. Louis, Mo.) supplimented with 10% fetal bovine serum (FBS) (V/V), L-glutamine (2 mM), sodium pyruvate (1 mM), HEPES {(N-[2-hydroxyethyl]piperazine-N'-[2-ethanesulfonic acid]10 mM}, non-essential amino acids and bovine insulin (1 μg/mL) (maintenance medium). Ten days prior to assay, MCF-7 cells were switched to maintenance medium supplemented with 10% dextran coated charcoal stripped fetal bovine serum (DCC-FBS) assay medium) in place of 10% FBS to deplete internal stores of steroids. MCF-7 cells were removed from maintenance flasks using cell dissociation medium (Ca^++ /Mg^++ free HBSS (phenol red-free) supplemented with 10 mM HEPES and 2 mM EDTA). Cells were washed twice with assay medium and adjusted to 80,000 cells/mL. Approximately […] (8,000 cells) were added to flat-bottom microculture wells (Costar 3596) and incubated at 37° C. in a 5% CO2 humidified incubator for 48 hours to allow for cell adherence and equilibration after transfer. Serial dilutions of drugs or DMSO as a diluent control were prepared in assay medium and […] to triplicate microcultures followed by […] assay medium for a final volume of […]. After an additional 48 hours at 37° C. in a 5% CO2 humidified incubator, microcultures were pulsed with tritiated thymidine (1 uCi/well) for 4 hours. Cultures were terminated by freezing at -70° C. for 24 hours followed by thawing and harvesting of microcultures using a Skatron Semiautomatic Cell Harvester. Samples were counted by liquid scintillation using a Wallace BetaPlace β counter. Results in Table 3 below show the ED50 (nM) for certain compounds of the instant invention: […]

| IC50 [1] | SMILES | Serum Cholest. % Decrease verses ovariectomized controls (serum cholesterol; 0.1 mg/kg PO) | Uterine Weight % Increase verses ovariectomized controls (uterus; 0.1 mg/kg PO) | Uterine Eosinophil peroxidase, Vmax (Eosinophil peroxidase; 0.1 mg/kg PO) | Serum Cholest. % Decrease verses ovariectomized controls (serum cholesterol; 1 mg/kg PO) | Serum Cholest. % Decrease verses ovariectomized controls (serum cholesterol; 10 mg/kg PO) | Uterine Weight % Increase verses ovariectomized controls (uterus; 1 mg/kg PO) | Uterine Weight % Increase verses ovariectomized controls (uterus; 10 mg/kg PO) | Uterine Eosinophil peroxidase, Vmax (Eosinophil peroxidase; 1 mg/kg PO) | Uterine Eosinophil peroxidase, Vmax (Eosinophil peroxidase; 10 mg/kg PO) | other results |
| --- | --- | --- | --- | --- | --- | --- | --- | --- | --- | --- | --- |
| – | C#C[C@]1(O)CC[C@H]2[C@@H]3CCc4cc(O)ccc4[C@H]3CC[C@@]21C [EE2, 17α-ethynyl estradiol, reference compound] | 90.5% | 169.5% | 144.0 | – | – | – | – | – | – | serum cholesterol, in words (serum cholesterol; oral, compared to ovariectomized control animals): caused a decrease in serum cholesterol when orally administered at 0.1 mg/kg/day; uterine weight, in words (uterus; oral, compared to ovariectomized animals): uterine weight was substantially greater than the uterine weight of ovariectomized test animals; eosinophil infiltration into the uterus, in words (Eosinophil peroxidase; stromal layer of ovariectomized rats): substantial, expected increase in eosinophil infiltration; Femur BMD % protection (femur; 0.1 mg/kg oral): 76.3%; Femur. % Protection (x-ray image) (femur; 0.1 mg/kg oral): 99.1%; prevention of bone loss, in words (femur; oral, OVX rats, femur density): prevents this loss |
| 200 nM | COc1ccc2c(c1)-c1sc3cc(OC)ccc3c1C2c1ccc(OCCN2CCCCC2)cc1 (stereo not drawn) [Example 1A, 10-[4-[2-(1-Piperidinyl)ethoxy]phenyl]-3,7-dimethoxybenzo[b]indeno[2,1-d]thiophene] | 59.1% | 19.2% | 7.2 | 47.7% | 68.7% | 21.6% | 26.8% | 30.3 | 21.9 | – |
| 100 nM | c1ccc2c(c1)-c1sc3ccccc3c1C2c1ccc(OCCN2CCCCC2)cc1 (stereo not drawn) [Example 1B, 10-[4-[2-(1-Piperidinyl)ethoxy]phenyl]benzo[b] indeno[2,1-d]thiophene] | 56.8% | 21% | 4.8 | 71.0% | 75.3% | 31.8% | 27.7% | 34.2 | 50.4 | – |
| 0.1 nM | Oc1ccc2c(c1)-c1sc3cc(O)ccc3c1C2c1ccc(OCCN2CCCCC2)cc1 (stereo not drawn) [Example 2, 10-[4-[2-(1-Piperidinyl)ethoxy]phenyl]-3,7-dihydroxy benzo[b]indeno[2,1-d]thiophene] | 41.4% | 14.6% | 4.8 | 52.5% | 66.3% | 25.6% | 18.3% | 24.0 | 23.4 | – |
| – | COc1ccc2c(c1)C(O)(c1ccc(OCCN3CCCCC3)cc1)c1c-2sc2cc(OC)ccc12 (stereo not drawn) [Example 3B, 10-[4-[2-(1-Piperidinyl)ethoxy]phenyl]-2,7-dimethoxy benzo[b]indeno[2,1-d]thiophen-10-ol] | 43.5% | 50.4% | 36.0 | 62.5% | 69.2% | 43.0% | 28.2% | 36.6 | 19.2 | – |
| – | COc1ccc2c3c(sc2c1)-c1ccccc1C3c1ccc(OCCN2CCCCC2)cc1 (stereo not drawn) [Example 5A, 10-[4-[2-(1-Piperidinyl)ethoxy]phenyl]-7-methoxy benzo[b]indeno[2,1-d]thiophene] | 59.1% | 33.8% | 6.4 | 74.4% | 60.3% | 63.5% | 92.9% | 35.4 | 31.8 | – |
| 10 nM | Cl.Oc1ccc2c3c(sc2c1)-c1ccccc1C3c1ccc(OCCN2CCCCC2)cc1 (stereo not drawn) [Example 6, 10-[4-[2-(1-Piperidinyl)ethoxy]phenyl]-7-hydroxy benzo[b]indeno[2,1-d]thiophene hydrochloride] | 1.3% | 32.5% | 2.9 | 40.6% | 69.9% | 67.4% | 54.0% | 3.7 | 29.8 | Femur BMD % protection (femur; 0.01 mg/kg oral): 40.4%; Femur. % Protection (x-ray image) (femur; 0.01 mg/kg oral): 53.8%; Femur BMD % protection (femur; 0.1 mg/kg oral): 46.6%; Femur. % Protection (x-ray image) (femur; 0.1 mg/kg oral): 39.2%; Femur BMD % protection (femur; 1 mg/kg oral): 66.6%; Femur. % Protection (x-ray image) (femur; 1 mg/kg oral): 73.4%; Femur BMD % protection (femur; 10 mg/kg oral): 64.0%; Femur. % Protection (x-ray image) (femur; 10 mg/kg oral): 48.2% |
